The compounds below were run against T1, PI3Kδ (Homo sapiens, UniProt O00329) (assay: In vitro PI3Kδ inhibition assay (ADP-Glo kinase assay)). Settings: mean from two independent experiments, PIP2 substrate 30 μM, 25 °C, 1 h.
T1 construct: purchased Merck Millipore
Assay type: biochemical
Experimental: All compounds were tested by a biochemical assay that measured the inhibition of phosphatidylinositol […] production by PI3K isoform. The potency of the tested compounds was assessed by determining the ability of PI3Kδ enzymes (Merck Millipore) to convert ATP to ADP during an enzymatic reaction in the presence of these compounds at decreasing doses. The experiments were carried out using the ADP-Glo kinase assay kit (Promega), according to the manufacturer’s protocol. PIP2 lipid vesicles containing phosphoserine (ThermoFisher Scientific, Waltham, MA, USA) were used as a substrate in the enzymatic reaction. The composition of the reaction mixture and reaction conditions for PI3Kδ were as follows: concentration of PI3Kδ enzyme: 10 ng; reaction temperature and time: 25 °C and 1 h; final concentration of PIP2 substrate: 30 μM; and reaction buffer: 50 mM of HEPES (pH 7.5), 50 mM NaCl, 3 mM MgCl2, and 0.025 mg/mL of BSA.
After the reaction, the ADP-Glo reagent and the kinase detection reagent were sequentially added. The reaction mixture was incubated for 40 min (25 °C, 600 rpm) after the addition of each reagent. Finally, luminescence intensity was measured and the IC50 value was calculated using GraphPad Prism 7 software (GraphPad, Boston, MA, USA). The results were presented as the mean value of IC50 obtained from at least two independent experiments.

T1 sequence (O00329 whole entry): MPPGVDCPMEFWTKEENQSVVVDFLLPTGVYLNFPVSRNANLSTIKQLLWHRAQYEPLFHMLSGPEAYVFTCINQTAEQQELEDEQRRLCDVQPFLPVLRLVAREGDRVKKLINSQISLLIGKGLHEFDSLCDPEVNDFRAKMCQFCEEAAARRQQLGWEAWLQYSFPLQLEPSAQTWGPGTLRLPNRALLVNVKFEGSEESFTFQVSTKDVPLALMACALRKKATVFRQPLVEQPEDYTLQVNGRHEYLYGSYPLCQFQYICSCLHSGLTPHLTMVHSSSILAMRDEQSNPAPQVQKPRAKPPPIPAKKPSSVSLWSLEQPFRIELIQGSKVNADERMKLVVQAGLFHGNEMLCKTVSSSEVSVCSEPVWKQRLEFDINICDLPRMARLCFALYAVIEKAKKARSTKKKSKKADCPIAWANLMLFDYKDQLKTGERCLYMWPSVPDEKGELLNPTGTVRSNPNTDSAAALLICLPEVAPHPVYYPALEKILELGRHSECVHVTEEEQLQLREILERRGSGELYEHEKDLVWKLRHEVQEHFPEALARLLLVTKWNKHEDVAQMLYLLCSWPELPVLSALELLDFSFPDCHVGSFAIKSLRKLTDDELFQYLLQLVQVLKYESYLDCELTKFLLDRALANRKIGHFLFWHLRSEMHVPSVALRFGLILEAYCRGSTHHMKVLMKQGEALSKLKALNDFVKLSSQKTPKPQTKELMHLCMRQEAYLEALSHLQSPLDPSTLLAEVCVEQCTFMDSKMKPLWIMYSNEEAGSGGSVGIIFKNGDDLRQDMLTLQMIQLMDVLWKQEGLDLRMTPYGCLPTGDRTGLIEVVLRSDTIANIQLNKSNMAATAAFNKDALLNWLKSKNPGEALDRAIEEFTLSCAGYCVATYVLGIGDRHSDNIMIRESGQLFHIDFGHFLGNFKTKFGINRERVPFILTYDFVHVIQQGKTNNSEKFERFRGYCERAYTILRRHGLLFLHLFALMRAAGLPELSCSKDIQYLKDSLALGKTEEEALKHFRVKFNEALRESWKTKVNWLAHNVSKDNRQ
T1 sequence (P27986 whole entry partner): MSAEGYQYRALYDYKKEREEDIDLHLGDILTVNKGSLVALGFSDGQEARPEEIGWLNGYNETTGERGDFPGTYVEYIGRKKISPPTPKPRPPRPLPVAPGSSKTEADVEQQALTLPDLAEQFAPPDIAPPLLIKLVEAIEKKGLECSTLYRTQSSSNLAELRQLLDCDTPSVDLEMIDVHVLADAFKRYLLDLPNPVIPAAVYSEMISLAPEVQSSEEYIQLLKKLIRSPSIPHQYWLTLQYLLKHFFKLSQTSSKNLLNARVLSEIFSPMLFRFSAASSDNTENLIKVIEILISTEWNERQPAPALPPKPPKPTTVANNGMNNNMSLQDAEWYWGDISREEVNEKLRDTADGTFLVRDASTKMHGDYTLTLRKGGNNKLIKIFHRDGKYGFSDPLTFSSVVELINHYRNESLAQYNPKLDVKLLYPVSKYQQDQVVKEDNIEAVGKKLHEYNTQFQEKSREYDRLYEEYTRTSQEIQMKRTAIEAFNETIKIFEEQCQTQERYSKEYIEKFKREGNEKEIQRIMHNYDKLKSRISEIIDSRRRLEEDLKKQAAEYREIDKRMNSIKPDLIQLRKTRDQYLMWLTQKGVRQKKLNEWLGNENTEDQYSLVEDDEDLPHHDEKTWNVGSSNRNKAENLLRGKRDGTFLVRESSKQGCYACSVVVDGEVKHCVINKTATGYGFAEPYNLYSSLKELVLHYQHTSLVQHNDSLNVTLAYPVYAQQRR

Compound | IC50
CC(C)(C)N1CCN(Cc2nn3c(N4CCOCC4)cc(-n4c(C(F)F)nc5ccccc54)nc3c2Cl)CC1 [Compound 4, 1-{2-[(4-Tert-butylpiperazin-1-yl)methyl]-3-chloro-7-(morpholin-4-yl)pyrazolo[1,5-a]pyrimidin-5-yl}-2-(difluoromethyl)-1H-benzimidazole] | 44 nM
CC(C)(C)N1CCN(Cc2nn3c(N4CCOCC4)cc(-n4c(C(F)F)nc5ccccc54)nc3c2Br)CC1 [Compound 5, 1-{3-Bromo-2-[(4-tert-butylpiperazin-1-yl)methyl]-7-(morpholin-4-yl)pyrazolo[1,5-a]pyrimidin-5-yl}-2-(difluoromethyl)-1H-benzimidazole] | 50 nM
FC(F)c1nc2ccccc2n1-c1cc(N2CCOCC2)n2nc(CN3CCN(Cc4ccccc4)CC3)cc2n1 [Compound 6, 1-{2-[(4-Benzylpiperazin-1-yl)methyl]-7-(morpholin-4-yl)pyrazolo[1,5-a]pyrimidin-5-yl}-2-(difluoromethyl)-1H-benzimidazole] | 118 nM
Fc1ccccc1CN1CCN(Cc2cc3nc(-n4c(C(F)F)nc5ccccc54)cc(N4CCOCC4)n3n2)CC1 [Compound 7] | 640 nM
Fc1cccc(CN2CCN(Cc3cc4nc(-n5c(C(F)F)nc6ccccc65)cc(N5CCOCC5)n4n3)CC2)c1 [Compound 8] | 751 nM

Now from value to compound:

IC50 | Compound
489 nM | Fc1ccc(CN2CCN(Cc3cc4nc(-n5c(C(F)F)nc6ccccc65)cc(N5CCOCC5)n4n3)CC2)cc1 [Compound 9]
275 nM | O=C(c1cc2nc(-n3c(C(F)F)nc4ccccc43)cc(N3CCOCC3)n2n1)N1CCN(Cc2ccccc2)CC1 [Compound 10, 1-[2-(4-Benzylpiperazine-1-carbonyl)-7-(morpholin-4-yl)pyrazolo[1,5-a]pyrimidin-5-yl]-2-(difluoromethyl)-1H-benzimidazole]
212 nM | O=C(c1cc2nc(-n3c(C(F)F)nc4ccccc43)cc(N3CCOCC3)n2n1)N1CCN(Cc2ccccc2F)CC1 [Compound 11, 2-(Difluoromethyl)-1-(2-{4-[(2-fluorophenyl)methyl]piperazine-1-carbonyl}-7-(morpholin-4-yl)pyrazolo[1,5-a]pyrimidin-5-yl)-1H-benzimidazole]
92 nM | O=C(c1cc2nc(-n3c(C(F)F)nc4ccccc43)cc(N3CCOCC3)n2n1)N1CCN(Cc2cccc(F)c2)CC1 [Compound 12, 2-(Difluoromethyl)-1-(2-{4-[(3-fluorophenyl)methyl]piperazine-1-carbonyl}-7-(morpholin-4-yl)pyrazolo[1,5-a]pyrimidin-5-yl)-1H-benzimidazole]
181 nM | O=C(c1cc2nc(-n3c(C(F)F)nc4ccccc43)cc(N3CCOCC3)n2n1)N1CCN(Cc2ccc(F)cc2)CC1 [Compound 13, 2-(Difluoromethyl)-1-(2-{4-[(4-fluorophenyl)methyl]piperazine-1-carbonyl}-7-(morpholin-4-yl)pyrazolo[1,5-a]pyrimidin-5-yl)-1H-benzimidazole]

Source: paper PMC10145010, “Tuning the Biological Activity of PI3Kδ Inhibitor by the Introduction of a Fluorine Atom Using the Computational Workflow” (Molecules, 2023)
